US11230543B2, “Biaryl monobactam compounds and methods of use thereof for the treatment of bacterial infections” (priority 2015, dated 2022)
Structures can show the parent of a compound that is named as a salt.

Legend:
[1] = tested on: Pseudomonas aeruginosa expressing AmpC (CL5701); assay: Antibiotic activity: growth inhibitory concentration (OD600), Pseudomonas aeruginosa CL5701; format: cell-based; settings: lowest concentration inhibiting 95% of bacterial growth; in the presence of β lactamase inhibitor Relebactam 4 μg/mL; 35±2° C. for 22 hours; tested range 100 μM to 0.098 μM
Method in brief: (§1)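 Clinical strains at ~2×10^5 CFU/mL in cation-adjusted Mueller-Hinton II broth, with relebactam at 4 μg/mL final; compounds 100 μM to 0.098 μM final. After 22 hours at 35±2° C, OD600 read; MITC95 is lowest concentration giving 95% growth inhibition.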

[2] = tested on: Klebsiella pneumoniae expressing KPC-1 (CL6569); assay: Antibiotic activity: growth inhibitory concentration (OD600), Klebsiella pneumoniae CL6569; format: cell-based; settings: lowest concentration inhibiting 95% of bacterial growth; in the presence of β lactamase inhibitor Relebactam 4 μg/mL; 35±2° C. for 22 hours; tested range 100 μM to 0.098 μM
Method in brief: as §1

Structure (SMILES) | PA_CL5701 MITC95 [1] [µM] | KP_CL6569 MITC95 [2] [µM]
COP(=O)(O)[C@H](COc1ccc(-c2cn(CCCN)[n+](C)c2)cc1)O/N=C(\C(=O)N[C@@H]1C(=O)N(OS(=O)(=O)O)C1(C)C)c1csc(N)n1.O=C(O)C(F)(F)F [Example 41, (3S)-3-((Z)-2-(((1R)-2-(4-(1-(3-aminopropyl)-2-methyl-1H-pyrazol-2-ium-4-yl)phenoxy)-1-(hydroxy(methoxy)phosphoryl)ethoxy)imino)-2-(2-aminothiazol-4-yl)acetamido)-2,2-dimethyl-4-oxoazetidin-1-yl sulfate compound with 2,2,2-trifluoroacetic acid (1:1)] | 25 | 1.563
C[n+]1cc(-c2ccc(OC[C@@](C)(O/N=C(\C(=O)N[C@@H]3C(=O)N(OS(=O)(=O)O)C3(C)C)c3nc(N)sc3Cl)C(=O)O)cc2)cn1CCCN [Example 51B, (S)-3-((Z)-2-(2-amino-5-chlorothiazol-4-yl)-2-((((R)-1-(4-(1-(3-aminopropyl)-2-methyl-1H-pyrazol-2-ium-4-yl)phenoxy)-2-carboxypropan-2-yl)oxy)imino)acetamido)-2,2-dimethyl-4-oxoazetidin-1-yl sulfate] | 25 | 6.25
C[n+]1cc(-c2ccc(OC[C@H](O/N=C(\C(=O)N[C@@H]3C(=O)N(OS(=O)(=O)O)C3(C)C)c3csc(N)n3)C(=O)O)c(F)c2)cn1CCCN [Example 15, 1-(3-aminopropyl)-4-(4-((S)-2-((((Z)-1-(2-aminothiazol-4-yl)-2-(((S)-2,2-dimethyl-4-oxo-1-(sulfooxy)azetidin-3-yl)amino)-2-oxo-ethylidene)amino)oxy)-2-carboxyethoxy)-3-fluorophenyl)-2-methyl-1H-pyrazol-2-ium, TFA salt (1:1)] | 6.25 | 0.3906
C[n+]1cc(-c2ccc(OC[C@H](O/N=C(\C(=O)N[C@@H]3C(=O)N(OS(=O)(=O)[O-])C3(C)C)c3csc(N)n3)C(=O)O)cc2F)ccc1NCCN [Example 68, (S)-3-((Z)-2-(((S)-2-(4-(6-((2-aminoethyl)amino)-1-methylpyridin-1-ium-3-yl)-3-fluorophenoxy)-1-carboxyethoxy)imino)-2-(2-aminothiazol-4-yl)acetamido)-2,2-dimethyl-4-oxoazetidin-1-yl sulfate] | 3.125 | 0.1953
Cc1cc(-c2ccc(OC[C@H](O/N=C(\C(=O)N[C@@H]3C(=O)N(OS(=O)(=O)O)C3(C)C)c3csc(N)n3)C(=O)O)cc2)[n+](C)n1CCCN.O=C([O-])C(F)(F)F [Example 22, 1-(3-aminopropyl)-3-(4-((S)-2-((((Z)-1-(2-aminothiazol-4-yl)-2-(((S)-2,2-dimethyl-4-oxo-1-(sulfooxy)azetidin-3-yl)amino)-2-oxo-ethylidene)amino)oxy)-2-carboxyethoxy)phenyl)-2,5-dimethyl-1H-pyrazol-2-ium 2,2,2-trifluoroacetate] | 25 | 0.7813
C[n+]1cc(-c2ccc(OC[C@H](O/N=C(\C(=O)N[C@@H]3C(=O)N(OS(=O)(=O)O)C3(C)C)c3csc(N)n3)C(=O)O)cc2)cn1CCCNCCCN [Example 104, (S)-3-((E)-2-(((S)-2-(4-(1-(3-((3-aminopropyl)amino)-propyl)-2-methyl-1H-pyrazol-2-ium-4-yl)phenoxy)-1-carboxyethoxy)imino)-2-(2-aminothiazol-4-yl)acetamido)-2,2-dimethyl-4-oxoazetidin-1-yl sulfate, 3TFA] | 6.25 | 0.1953
CC1(C)[C@H](NC(=O)/C(=N\O[C@@H](COc2ccc(-n3cc[n+](CCCN)c3)nc2)C(=O)O)c2csc(N)n2)C(=O)N1OS(=O)(=O)[O-] [Example 112, (S)-3-((Z)-2-(((S)-2-((6-(3-(3-aminopropyl)-1H-imidazol-3-ium-1-yl)pyridin-3-yl)oxy)-1-carboxyethoxy)imino)-2-(2-aminothiazol-4-yl)acetamido)-2,2-dimethyl-4-oxoazetidin-1-yl sulfate] | 10.42 | 0.7813
CC1(C)[C@H](NC(=O)/C(=N\O[C@@H](COc2ccc(C3CN=C(NCCN)NC3)cc2)C(=O)O)c2csc(N)n2)C(=O)N1OS(=O)(=O)O (stereo partly drawn) [Example 94, (2S)-3-(4-(2-((2-aminoethyl)amino)-1,4,5,6-tetrahydropyrimidin-5-yl)phenoxy)-2-((((Z)-1-(2-aminothiazol-4-yl)-2-(((S)-2,2-dimethyl-4-oxo-1-(sulfooxy)azetidin-3-yl)amino)-2-oxoethylidene)amino)oxy)propanoic acid] | 3.125 | 0.1953
C[C@H]1[C@H](NC(=O)/C(=N\O[C@@H](COc2ccc(-c3cnn(CCCN)c3)cc2)C(=O)O)c2csc(N)n2)C(=O)N1S(=O)(=O)O [Example 6, (S)-3-(4-(1-(3-aminopropyl)-1H-pyrazol-4-yl)phenoxy)-2-((((Z)-1-(2-aminothiazol-4-yl)-2-(((2S,3S)-2-methyl-4-oxo-1-sulfoazetidin-3-yl)amino)-2-oxoethylidene)amino)oxy)propanoic acid] | 100 | 12.5
C[n+]1cc(-c2ccc(OC[C@H](O/N=C(\C(=O)N[C@@H]3C(=O)N(OS(=O)(=O)[O-])C3(C)C)c3csc(N)n3)C(=O)O)cc2)cn1CCN [Example 17, (S)-3-((Z)-2-(((S)-2-(4-(1-(2-aminoethyl)-2-methyl-1H-pyrazol-2-ium-4-yl)phenoxy)-1-carboxyethoxy)imino)-2-(2-aminothiazol-4-yl)acetamido)-2,2-dimethyl-4-oxoazetidin-1-yl sulfate] | 6.25 | 0.3906
C[C@H]1[C@H](NC(=O)/C(=N\O[C@@H](COc2ccc(-c3cn(CCCN)[n+](C)c3)cc2)c2nn[nH]n2)c2csc(N)n2)C(=O)N1S(=O)(=O)O.O=C([O-])C(F)(F)F [Example 30, 1-(3-aminopropyl)-4-(4-((R)-2-((((Z)-1-(2-aminothiazol-4-yl)-2-(((2S,3S)-2-methyl-4-oxo-1-sulfoazetidin-3-yl)amino)-2-oxoethylidene)amino)oxy)-2-(2H-tetrazol-5-yl)ethoxy)phenyl)-2-methyl-1H-pyrazol-2-ium 2,2,2-trifluoroacetate] | 6.25 | 3.125
CC1(C)[C@H](NC(=O)/C(=N\O[C@@H](COc2ccc(C3CN=C(NCCN)N3)cc2)C(=O)O)c2csc(N)n2)C(=O)N1OS(=O)(=O)O (stereo partly drawn) [Example 60, (2S)-3-(4-(2-((2-aminoethyl)amino)-4,5-dihydro-1H-imidazol-5-yl)phenoxy)-2-((((Z)-1-(2-aminothiazol-4-yl)-2-(((S)-2,2-dimethyl-4-oxo-1-(sulfooxy)azetidin-3-yl)amino)-2-oxoethylidene)amino)oxy)propanoic acid] | 3.125 | 0.3906
CC1(C)[C@H](NC(=O)/C(=N\O[C@@H](COc2ccc(-c3ccc(C(=O)NC(CN)CN)nc3)cc2)C(=O)O)c2csc(N)n2)C(=O)N1OS(=O)(=O)O [Example 81, (S)-2-((((Z)-1-(2-aminothiazol-4-yl)-2-(((S)-2,2-dimethyl-4-oxo-1-(sulfooxy)azetidin-3-yl)amino)-2-oxoethylidene)amino)oxy)-3-(4-(6-((1,3-diaminopropan-2-yl)carbamoyl)pyridin-3-yl)phenoxy)propanoic acid] | 3.125 | 0.1953
C[n+]1cc(-c2ccc(OC[C@](C)(O/N=C(\C(=O)N[C@@H]3C(=O)N(OS(=O)(=O)O)C3(C)C)c3csc(N)n3)C(=O)O)cc2)cn1CCCN [Example 39, (S)-3-((Z)-2-((((S)-1-(4-(1-(3-aminopropyl)-2-methyl-1H-pyrazol-2-ium-4-yl)phenoxy)-2-carboxypropan-2-yl)oxy)imino)-2-(2-aminothiazol-4-yl)acetamido)-2,2-dimethyl-4-oxoazetidin-1-yl sulfate] | 3.125 | 0.3255
CC1(C)[C@H](NC(=O)/C(=N\O[C@@H](COc2ccc(-n3ccn(CCCN)c3=N)nc2)C(=O)O)c2csc(N)n2)C(=O)N1OS(=O)(=O)O [Example 118, (S)-3-((6-(3-(3-aminopropyl)-2-imino-2,3-dihydro-1H-imidazol-1-yl)pyridin-3-yl)oxy)-2-((((Z)-1-(2-aminothiazol-4-yl)-2-(((S)-2,2-dimethyl-4-oxo-1-(sulfooxy)azetidin-3-yl)amino)-2-oxoethylidene)amino)oxy)propanoic acid] | 6.25 | 0.3906
C[n+]1cc(-c2ccc(OC[C@H](O/N=C(\C(=O)N[C@@H]3C(=O)N(OS(=O)(=O)[O-])C3(C)C)c3csc(N)n3)C(=O)O)cc2Cl)cn1CCCN [Example 38, (S)-3-((Z)-2-(((S)-2-(4-(1-(3-aminopropyl)-2-methyl-1H-pyrazol-2-ium-4-yl)-3-chlorophenoxy)-1-carboxyethoxy)imino)-2-(2-aminothiazol-4-yl)acetamido)-2,2-dimethyl-4-oxoazetidin-1-yl sulfate] | 6.25 | 0.3906
C[n+]1cc(-c2ccc(OC[C@H](O/N=C(\C(=O)N[C@@H]3C(=O)N(OS(=O)(=O)O)C3(C)C)c3csc(N)n3)C(=O)O)cc2F)cn1CC(O)CN.O=CO (stereo partly drawn) [Example 44, (3S)-3-((Z)-2-(((1S)-2-(4-(1-(3-amino-2-hydroxypropyl)-2-methyl-1H-pyrazol-2-ium-4-yl)-3-fluorophenoxy)-1-carboxyethoxy)imino)-2-(2-aminothiazol-4-yl)acetamido)-2,2-dimethyl-4-oxoazetidin-1-yl sulfate compound with formic acid (1:1)] | 3.125 | 0.1953
